This passage reports IC50 results from US12441703B2, “Carboxamides as modulators of sodium channels” (VERTEX PHARMACEUTICALS INCORPORATED, priority 2019, dated 2025).

The target in the test is human NaV 1.8 (Homo sapiens, UniProt Q9Y5Y9). The test can be described thus: E-VIPR assay for detecting and measuring NaV inhibition properties. The settings on record: E-VIPR assay conducted in the presence of human serum; HEK cells expressing truncated human NaV 1.8; read-out: IC50. The format is cell-based. In outline: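 Membrane-potential (coumarin/oxonol) readout after 10 s of 10 Hz biphasic electrical stimulation on E-VIPR. Compounds: 11-point 3-fold dilutions, […], 0.625% DMSO, 30 min at room temperature, human serum optional. Cells: HEK expressing truncated human NaV1.8 co-transduced with KIR2.1.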
Sequence of human NaV 1.8 (Q9Y5Y9 whole entry, looked up, the tested form may be a part): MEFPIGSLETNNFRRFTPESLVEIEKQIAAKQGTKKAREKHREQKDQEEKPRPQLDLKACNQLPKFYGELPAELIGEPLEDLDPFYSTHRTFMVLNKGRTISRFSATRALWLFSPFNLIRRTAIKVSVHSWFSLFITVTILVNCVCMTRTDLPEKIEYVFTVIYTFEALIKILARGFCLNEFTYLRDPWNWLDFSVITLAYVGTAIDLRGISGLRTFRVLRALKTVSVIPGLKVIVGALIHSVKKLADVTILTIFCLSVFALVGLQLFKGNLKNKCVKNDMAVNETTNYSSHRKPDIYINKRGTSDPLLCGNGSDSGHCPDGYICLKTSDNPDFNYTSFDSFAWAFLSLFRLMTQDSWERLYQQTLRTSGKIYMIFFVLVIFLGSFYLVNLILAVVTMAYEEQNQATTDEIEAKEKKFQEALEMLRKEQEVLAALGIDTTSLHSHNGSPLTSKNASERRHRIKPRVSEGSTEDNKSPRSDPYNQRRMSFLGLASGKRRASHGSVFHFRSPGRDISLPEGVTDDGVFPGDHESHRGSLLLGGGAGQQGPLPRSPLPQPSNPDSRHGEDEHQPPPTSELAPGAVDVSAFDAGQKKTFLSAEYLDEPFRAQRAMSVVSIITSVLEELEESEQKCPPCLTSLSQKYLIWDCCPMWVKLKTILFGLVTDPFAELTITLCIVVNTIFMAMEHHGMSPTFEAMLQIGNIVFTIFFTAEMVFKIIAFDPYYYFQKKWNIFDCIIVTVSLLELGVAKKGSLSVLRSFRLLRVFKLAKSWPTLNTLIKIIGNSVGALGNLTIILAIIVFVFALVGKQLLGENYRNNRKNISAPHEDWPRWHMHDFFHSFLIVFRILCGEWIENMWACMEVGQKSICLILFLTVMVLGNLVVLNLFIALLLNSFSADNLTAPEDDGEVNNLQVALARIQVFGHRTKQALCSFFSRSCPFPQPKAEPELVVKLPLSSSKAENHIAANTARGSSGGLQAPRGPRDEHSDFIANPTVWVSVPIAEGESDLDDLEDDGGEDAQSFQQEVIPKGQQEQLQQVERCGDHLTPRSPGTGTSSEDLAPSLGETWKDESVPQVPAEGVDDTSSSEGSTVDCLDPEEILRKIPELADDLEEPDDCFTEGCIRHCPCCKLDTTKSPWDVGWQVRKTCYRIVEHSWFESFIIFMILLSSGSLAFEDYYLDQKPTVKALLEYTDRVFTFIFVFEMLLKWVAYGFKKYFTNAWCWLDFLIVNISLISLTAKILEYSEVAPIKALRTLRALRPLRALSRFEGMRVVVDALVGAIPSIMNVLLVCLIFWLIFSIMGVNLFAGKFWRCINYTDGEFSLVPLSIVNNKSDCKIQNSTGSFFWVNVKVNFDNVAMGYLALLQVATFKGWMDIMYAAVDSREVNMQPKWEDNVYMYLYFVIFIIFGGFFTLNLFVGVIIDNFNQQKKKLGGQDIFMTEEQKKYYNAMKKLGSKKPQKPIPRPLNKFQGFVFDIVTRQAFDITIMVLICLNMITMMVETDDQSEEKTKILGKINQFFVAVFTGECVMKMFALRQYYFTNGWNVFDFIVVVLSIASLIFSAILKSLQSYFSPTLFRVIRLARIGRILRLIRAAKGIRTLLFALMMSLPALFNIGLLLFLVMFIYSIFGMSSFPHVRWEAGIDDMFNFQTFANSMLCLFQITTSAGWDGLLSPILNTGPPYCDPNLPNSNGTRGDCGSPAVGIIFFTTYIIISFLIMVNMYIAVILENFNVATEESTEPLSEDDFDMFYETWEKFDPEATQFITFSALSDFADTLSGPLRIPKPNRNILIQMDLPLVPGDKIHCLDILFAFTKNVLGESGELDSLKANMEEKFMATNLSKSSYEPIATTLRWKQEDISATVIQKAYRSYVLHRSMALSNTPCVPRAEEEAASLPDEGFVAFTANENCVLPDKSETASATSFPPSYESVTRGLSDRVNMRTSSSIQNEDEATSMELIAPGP
A word on the IC50: it is the concentration at which inhibition is half-maximal. Consider `COc1c(C(F)(F)F)ccc(Oc2ccccc2)c1C(=O)Nc1ccnc(C(N)=O)c1` [Compound 63, 4-[[2-methoxy-6-phenoxy-3-(trifluoromethyl)benzoyl]amino]pyridine-2-carboxamide], for which the 50% inhibitory concentration (IC50) came to 1800 nM. For the molecule `COc1c(C(F)(F)F)ccc(Oc2ccc(F)cc2C)c1C(=O)Nc1ccnc(C(N)=O)c1` [Compound 64, 4-[[6-(4-fluoro-2-methyl-phenoxy)-2-methoxy-3-(trifluoromethyl)benzoyl]amino]pyridine-2-carboxamide], the 50% inhibitory concentration (IC50) was 63 nM. `COc1c(C(F)(F)F)ccc(Oc2ccc(OC(F)(F)F)c(F)c2)c1C(=O)Nc1ccnc(C(N)=O)c1` [Compound 65, 4-[[6-[3-fluoro-4-(trifluoromethoxy)phenoxy]-2-methoxy-3-(trifluoromethyl)benzoyl]amino]pyridine-2-carboxamide]: the half-maximal inhibitory concentration (IC50) is 36 nM. With `COc1c(C(F)(F)F)ccc(Oc2ccc(OC(F)(F)F)cc2Cl)c1C(=O)Nc1ccnc(C(N)=O)c1` [Compound 66, 4-[[6-[2-chloro-4-(trifluoromethoxy)phenoxy]-2-methoxy-3-(trifluoromethyl)benzoyl]amino]pyridine-2-carboxamide], the half-maximal inhibitory concentration (IC50) was 16 nM. Next, `COc1c(C(F)(F)F)ccc(Oc2ccc(OC(C)C)c(F)c2)c1C(=O)Nc1ccnc(C(N)=O)c1` [Compound 67, 4-[[6-(3-fluoro-4-isopropoxy-phenoxy)-2-methoxy-3-(trifluoromethyl)benzoyl]amino]pyridine-2-carboxamide]: 110 nM; `COc1c(C(F)(F)F)ccc(Oc2ccc(F)c3c2OCC3)c1C(=O)Nc1ccnc(C(N)=O)c1` [Compound 68, 4-[[6-[(4-fluoro-2,3-dihydrobenzofuran-7-yl)oxy]-2-methoxy-3-(trifluoromethyl)benzoyl]amino]pyridine-2-carboxamide]: 290 nM; `COc1cc(Oc2ccc(C(F)(F)F)c(OC)c2C(=O)Nc2ccnc(C(N)=O)c2)ccc1F` [Compound 69, 4-[[6-(4-fluoro-3-methoxy-phenoxy)-2-methoxy-3-(trifluoromethyl)benzoyl]amino]pyridine-2-carboxamide]: over 3000 nM. As to `COc1c(C(F)(F)F)ccc(Oc2ccc(C(F)(F)F)nc2)c1C(=O)Nc1ccnc(C(N)=O)c1` [Compound 70, 4-[[2-methoxy-3-(trifluoromethyl)-6-[[6-(trifluoromethyl)-3-pyridyl]oxy]benzoyl]amino]pyridine-2-carboxamide], the IC50 is over 3000 nM. Turning to `CC(C)Oc1ccc(Oc2cccc(C(F)(F)F)c2C(=O)Nc2ccnc(C(N)=O)c2)c(F)c1F` [Compound 72, 4-[[2-(2,3-difluoro-4-isopropoxy-phenoxy)-6-(trifluoromethyl)benzoyl]amino]pyridine-2-carboxamide], the IC50 amounted to 560 nM. For `COc1nc(Cl)ccc1Oc1cccc(C(F)(F)F)c1C(=O)Nc1ccnc(C(N)=O)c1` [Compound 73, 4-[[2-[(6-chloro-2-methoxy-3-pyridyl)oxy]-6-(trifluoromethyl)benzoyl]amino]pyridine-2-carboxamide], the IC50 was 1500 nM. `CC(C)Oc1ccc(Oc2cccc(C(F)(F)F)c2C(=O)Nc2ccnc(C(N)=O)c2)cc1F` [Compound 74, 4-[[2-(3-fluoro-4-isopropoxy-phenoxy)-6-(trifluoromethyl)benzoyl]amino]pyridine-2-carboxamide]: the 50% inhibitory concentration (IC50) is 1200 nM. Take `COc1cc(F)ccc1Oc1cccc(C(F)(F)F)c1C(=O)Nc1ccnc(C(N)=O)c1` [Compound 75, 4-[[2-(4-fluoro-2-methoxy-phenoxy)-6-(trifluoromethyl)benzoyl]amino]pyridine-2-carboxamide]: the IC50 worked out at 1750 nM. In the case of `NC(=O)c1cc(NC(=O)c2c(Oc3ccc(F)cc3F)cccc2C(F)(F)F)ccn1` [Compound 77, 4-[[2-(2,4-difluorophenoxy)-6-(trifluoromethyl)benzoyl]amino]pyridine-2-carboxamide] it was over 3000 nM. Regarding `NC(=O)c1cc(NC(=O)c2c(Oc3ccc(F)c4c3OCC4)cccc2C(F)(F)F)ccn1` [Compound 78, 4-[[2-[(4-fluoro-2,3-dihydrobenzofuran-7-yl)oxy]-6-(trifluoromethyl)benzoyl]amino]pyridine-2-carboxamide], the 50% inhibitory concentration (IC50) was over 3000 nM. On to `NC(=O)c1cc(NC(=O)c2c(Oc3ccc(F)cc3Cl)cccc2C(F)(F)F)ccn1` [Compound 79, 4-[[2-(2-chloro-4-fluoro-phenoxy)-6-(trifluoromethyl)benzoyl]amino]pyridine-2-carboxamide], for which the IC50 was over 3000 nM. Consider `NC(=O)c1cc(NC(=O)c2c(Oc3ccc(F)c(Cl)c3)cccc2C(F)(F)F)ccn1` [Compound 80, 4-[[2-(3-chloro-4-fluoro-phenoxy)-6-(trifluoromethyl)benzoyl]amino]pyridine-2-carboxamide], for which the half-maximal inhibitory concentration (IC50) is over 3000 nM.

For the molecule `CC(C)Oc1ccc(Oc2cccc(C(F)(F)F)c2C(=O)Nc2ccnc(C(N)=O)c2)c(F)c1` [Compound 81, 4-[[2-(2-fluoro-4-isopropoxy-phenoxy)-6-(trifluoromethyl)benzoyl]amino]pyridine-2-carboxamide], the IC50 is over 3000 nM. As for `COc1cc(OC(F)(F)F)ccc1Oc1ccc(C(F)(F)F)c(OCC(C)C)c1C(=O)Nc1ccnc(C(N)=O)c1` [Compound 82, 4-[[2-isobutoxy-6-[2-methoxy-4-(trifluoromethoxy)phenoxy]-3-(trifluoromethyl)benzoyl]amino]pyridine-2-carboxamide], the IC50 is over 3000 nM. With `CCOc1c(C(F)(F)F)ccc(Oc2ccc(OC(F)(F)F)cc2OC)c1C(=O)Nc1ccnc(C(N)=O)c1` [Compound 83, 4-[[2-ethoxy-6-[2-methoxy-4-(trifluoromethoxy)phenoxy]-3-(trifluoromethyl)benzoyl]amino]pyridine-2-carboxamide], the IC50 was found to be 160 nM. In the case of `COc1cc(OC(F)(F)F)ccc1Oc1ccc(C(F)(F)F)c(OCC2CC2)c1C(=O)Nc1ccnc(C(N)=O)c1` [Compound 84, 4-[[2-(cyclopropylmethoxy)-6-[2-methoxy-4-(trifluoromethoxy)phenoxy]-3-(trifluoromethyl)benzoyl]amino]pyridine-2-carboxamide] it was 625 nM; in that of `COc1cc(OC(F)(F)F)ccc1Oc1ccc(C(F)(F)F)c(OC2CC2)c1C(=O)Nc1ccnc(C(N)=O)c1` [Compound 85, 4-[[2-(cyclopropoxy)-6-[2-methoxy-4-(trifluoromethoxy)phenoxy]-3-(trifluoromethyl)benzoyl]amino]pyridine-2-carboxamide], 180 nM; in that of `COc1cc(OC(F)(F)F)ccc1Oc1ccc(C(F)(F)F)c(OCC2CC2(F)F)c1C(=O)Nc1ccnc(C(N)=O)c1` (stereo not drawn) [Compound 86, 4-[[2-[(2,2-difluorocyclopropyl)methoxy]-6-[2-methoxy-4-(trifluoromethoxy)phenoxy]-3-(trifluoromethyl)benzoyl]amino]pyridine-2-carboxamide], 1000 nM. Consider `COc1cc(OC(F)(F)F)ccc1Oc1ccc(C(F)(F)F)c(NCC(C)C)c1C(=O)Nc1ccnc(C(N)=O)c1` [Compound 87, 4-[[2-(isobutylamino)-6-[2-methoxy-4-(trifluoromethoxy)phenoxy]-3-(trifluoromethyl)benzoyl]amino]pyridine-2-carboxamide], for which the IC50 is 1500 nM. In the case of `[2H]C([2H])([2H])Oc1cc(OC(F)(F)F)ccc1Oc1cc(-c2ccc(C)cc2)cc(F)c1C(=O)Nc1ccnc(C(N)=O)c1` [Compound 88, 4-[[2-fluoro-4-(p-tolyl)-6-[2-(trideuteriomethoxy)-4-(trifluoromethoxy)phenoxy]benzoyl]amino]pyridine-2-carboxamide], the IC50 amounted to 39 nM. Next, `[2H]C([2H])([2H])Oc1cc(OC(F)(F)F)ccc1Oc1cc(-c2ccc(F)cc2)cc(F)c1C(=O)Nc1ccnc(C(N)=O)c1` [Compound 89, 4-[[2-fluoro-4-(4-fluorophenyl)-6-[2-(trideuteriomethoxy)-4-(trifluoromethoxy)phenoxy]benzoyl]amino]pyridine-2-carboxamide]: 36 nM. With `[2H]C([2H])([2H])Oc1cc(OC(F)(F)F)ccc1Oc1cc(-c2cccnc2)cc(F)c1C(=O)Nc1ccnc(C(N)=O)c1` [Compound 90, 4-[[2-fluoro-4-(3-pyridyl)-6-[2-(trideuteriomethoxy)-4-(trifluoromethoxy)phenoxy]benzoyl]amino]pyridine-2-carboxamide], the concentration for half-maximal inhibition (IC50) amounted to 210 nM. For the molecule `[2H]C([2H])([2H])Oc1cc(OC(F)(F)F)ccc1Oc1cc(-c2ccncc2)cc(F)c1C(=O)Nc1ccnc(C(N)=O)c1` [Compound 91, 4-[[2-fluoro-4-(4-pyridyl)-6-[2-(trideuteriomethoxy)-4-(trifluoromethoxy)phenoxy]benzoyl]amino]pyridine-2-carboxamide], the IC50 came to 440 nM. Turning to `[2H]C([2H])([2H])Oc1cc(OC(F)(F)F)ccc1Oc1cc(-c2ccccc2)cc(F)c1C(=O)Nc1ccnc(C(N)=O)c1` [Compound 92, 4-[[2-fluoro-4-phenyl-6-[2-(trideuteriomethoxy)-4-(trifluoromethoxy)phenoxy]benzoyl]amino]pyridine-2-carboxamide], the IC50 turned out to be 63 nM. With `[2H]C([2H])([2H])Oc1cc(OC(F)(F)F)ccc1Oc1cc(-c2ccc(C(F)(F)F)cc2)cc(F)c1C(=O)Nc1ccnc(C(N)=O)c1` [Compound 93, 4-[[2-fluoro-6-[2-(trideuteriomethoxy)-4-(trifluoromethoxy)phenoxy]-4-[4-(trifluoromethyl)phenyl]benzoyl]amino]pyridine-2-carboxamide], the IC50 is 13 nM. For `[2H]C([2H])([2H])Oc1cc(OC(F)(F)F)ccc1Oc1cc(-c2cccc(C(F)(F)F)c2)cc(F)c1C(=O)Nc1ccnc(C(N)=O)c1` [Compound 94, 4-[[2-fluoro-6-[2-(trideuteriomethoxy)-4-(trifluoromethoxy)phenoxy]-4-[3-(trifluoromethyl)phenyl]benzoyl]amino]pyridine-2-carboxamide], the IC50 is 39 nM.
